# Patent US4255183A, “Substituted phenyl urea and herbicides for use in paddy field” (Hokko Chemical Industry Co., Ltd., priority 1977, dated 1981)
# Key:
# [1] = test system: paddy rice; experiment: whole plant or invertebrate; format: in vivo, paddy rice (Asahi species); conditions: granule, 30 days; for Inhibition (%) by treatment at 1-leaf stage of E. crus-galli var. oryzicola, paddy rice: rice at 3.5 leaves stage; for Inhibition (%) by treatment at 5-leaf stage of E. crus-galli var. oryzicola, paddy rice: rice at 7 leaves stage
# Description: (§1) In a Wagner pot of 1/500 are, paddy field soil (alluvial soil) was placed and 50 seeds of Echinochloa crus-galli var. oryzicola and 30 seeds of paddy rice were seeded in the surface layer of said soil and the submerging depth was kept at about 1 cm. When Echinochloa crus-galli var. oryzicola reached at the one leaf stage and 5-leaf stage, the emulsion of a predetermined concentration, prepared according to Example 4 was added dropwise. After 30 days from the treatment with the chemical, dry weights of Echinochloa crus-galli var. oryzicola and paddy rice were measured and the inhibition rate was calculated with reference to untreated area. [formula]
# (§2) In a concrete pot of 1/400 are (50 cm×50 cm), paddy field soil (alluvial soil) was placed and 200 seeds of Echinochloa crus-galli var. oryzicola were seeded in 10 surface layer of said soil and the soil was submerged at about 3 cm depth. Before emergence of Echinochloa crus-galli var. oryzicola, paddy rice at 2.5-leaf stage (Asahi species) was transplanted at the rate of 8 stubs per pot, planting 3 seedlings per stub. At the one-leaf stage (3.5 leaves stage of paddy rice) and 5 leaves stage (7 leaves stage of paddy rice) of Echinochloa crus-galli var. oryzicola, the granule prepared according to Example 1 was applied. […] 30 Days after the treatment with the chemical, examination was made in the similar manner as Test Example 1 to obtain results as shown in Table 2.
# (§3) In the table, as the comparative chemicals CPN, Benthiocarb, Molinate and Simetryne, those commercially available were used and the comparative chemicals A and B (as mentioned before) used were prepared according to the process for preparing the compound of this invention.
# [2] = test system: Echinochloa crus-galli var. oryzicola; experiment: Test Example 1: pot test on selectivity, inhibition of Echinochloa crus-galli var. oryzicola; format: in vivo; conditions: dry weight 30 days after treatment
# Description: as §1
# (§4) The comparative chemicals used, i.e. DCMU and Linuron, were those commercially available, and the comparative chemicals A and B used were prepared according to the process for formulating the compound of this invention.
# [3] = test system: paddy rice; experiment: Test Example 1: pot test on selectivity, inhibition of paddy rice; format: in vivo; conditions: dry weight 30 days after treatment
# Description: as §1, with “When Echinochloa crus-galli var. oryzicola reached at the one leaf stage and 5-leaf stage, the emulsion of a predetermined concentration, prepared according to Example 4 was added dropwise.” left out
# as §4
# [4] = test system: Echinochloa crus-galli var. oryzicola; experiment: Test Example 2: concrete pot test on killing effect, Echinochloa crus-galli var. oryzicola; format: in vivo; conditions: granule, 30 days after treatment
# Description: as §1, §2, §3
smiles,measurement,setting,value
CC(Cl)=CCOc1ccc(NC(=O)N(C)C)cc1 [Comparative chemical A],"Inhibition (%) by treatment at 1-leaf stage of E. crus-galli var. oryzicola, paddy rice",[1]; 100 g/10 are,0%
same,"Inhibition (%) by treatment at 5-leaf stage of E. crus-galli var. oryzicola, paddy rice",[1]; 100 g/10 are,0%
same,"Inhibition (%) by treatment at 1-leaf stage of E. crus-galli var. oryzicola, paddy rice",[1]; 300 g/10 are,0%
same,"Inhibition (%) by treatment at 5-leaf stage of E. crus-galli var. oryzicola, paddy rice",[1]; 300 g/10 are,0%
same,"Inhibition (%) by treatment at 1-leaf stage of E. crus-galli var. oryzicola, paddy rice",[1]; 900 g/10 are,23%
same,"Inhibition (%) by treatment at 5-leaf stage of E. crus-galli var. oryzicola, paddy rice",[1]; 900 g/10 are,5%
same,"Inhibition (%) by treatment at 1-leaf stage, E. crus-galli var. oryzicola",[2]; 75 g/10 are,87%
same,"Inhibition (%) by treatment at 5-leaf stage, E. crus-galli var. oryzicola",[2]; 75 g/10 are,37%
same,"Inhibition (%) by treatment at 1-leaf stage, E. crus-galli var. oryzicola",[2]; 150 g/10 are,100%
same,"Inhibition (%) by treatment at 5-leaf stage, E. crus-galli var. oryzicola",[2]; 150 g/10 are,67%
same,"Inhibition (%) by treatment at 1-leaf stage, E. crus-galli var. oryzicola",[2]; 300 g/10 are,100%
same,"Inhibition (%) by treatment at 5-leaf stage, E. crus-galli var. oryzicola",[2]; 300 g/10 are,82%
same,"Inhibition (%) by treatment at 1-leaf stage, E. crus-galli var. oryzicola",[2]; 600 g/10 are,100%
same,"Inhibition (%) by treatment at 5-leaf stage, E. crus-galli var. oryzicola",[2]; 600 g/10 are,95%
same,"Inhibition (%) by treatment at 1-leaf stage, E. crus-galli var. oryzicola",[2]; 900 g/10 are,100%
same,"Inhibition (%) by treatment at 5-leaf stage, E. crus-galli var. oryzicola",[2]; 900 g/10 are,100%
same,"Inhibition (%) by treatment at 1-leaf stage, paddy rice",[3]; 75 g/10 are,0%
same,"Inhibition (%) by treatment at 5-leaf stage, paddy rice",[3]; 75 g/10 are,0%
same,"Inhibition (%) by treatment at 1-leaf stage, paddy rice",[3]; 150 g/10 are,0%
same,"Inhibition (%) by treatment at 5-leaf stage, paddy rice",[3]; 150 g/10 are,0%
same,"Inhibition (%) by treatment at 1-leaf stage, paddy rice",[3]; 300 g/10 are,0%
same,"Inhibition (%) by treatment at 5-leaf stage, paddy rice",[3]; 300 g/10 are,0%
same,"Inhibition (%) by treatment at 1-leaf stage, paddy rice",[3]; 600 g/10 are,15%
same,"Inhibition (%) by treatment at 5-leaf stage, paddy rice",[3]; 600 g/10 are,0%
same,"Inhibition (%) by treatment at 1-leaf stage, paddy rice",[3]; 900 g/10 are,35%
same,"Inhibition (%) by treatment at 5-leaf stage, paddy rice",[3]; 900 g/10 are,12%
same,"Inhibition (%) by treatment at 1-leaf stage of E. crus-galli var. oryzicola, E. crus-galli var. oryzicola",[4]; 100 g/10 are,100%
same,"Inhibition (%) by treatment at 5-leaf stage of E. crus-galli var. oryzicola, E. crus-galli var. oryzicola",[4]; 100 g/10 are,48%
same,"Inhibition (%) by treatment at 1-leaf stage of E. crus-galli var. oryzicola, E. crus-galli var. oryzicola",[4]; 300 g/10 are,100%
same,"Inhibition (%) by treatment at 5-leaf stage of E. crus-galli var. oryzicola, E. crus-galli var. oryzicola",[4]; 300 g/10 are,72%
same,"Inhibition (%) by treatment at 1-leaf stage of E. crus-galli var. oryzicola, E. crus-galli var. oryzicola",[4]; 900 g/10 are,100%
same,"Inhibition (%) by treatment at 5-leaf stage of E. crus-galli var. oryzicola, E. crus-galli var. oryzicola",[4]; 900 g/10 are,98%
